Assay results: PubChem BioAssay AID179 (DTP/NCI, 2004)
Activity calls are given as the source filed them.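 How the source made its calls: active means compounds giving half or more protection of infected cells from virus-caused growth loss, again on retest; inactive means the rest.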 Where a SMILES comes first, the peptide text is derived from it.

Tested on: CEM cells HIV-1 protection, formazan growth assay
Experiment: NCI AIDS Antiviral Assay
Conditions: for IC50: measured here: growth of uninfected CEM cells
Summary of the method: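 Protection of CEM cells against HIV-1 measured as cell growth via soluble formazan read-out, with five concentrations tested on both infected and uninfected cells; failure to protect may reflect toxicity.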

Row | Compound | EC50 [µM] | IC50 [µM] | outcome
1 | CN(C)c1ccc(C=C2c3ccccc3-c3ccccc32)cc1 | > 17.4 | > 17.4 | –
2 | COc1cccc(C2=NC(C(C)C)CO2)c1OC (stereo not given) | > 525 | 316 | –
3 | CC(C)c1cc2c(O)c(c1)Cc1cc(C(C)C)cc(c1O)Cc1cc(C(C)C)cc(c1O)Cc1cc(C(C)C)cc(c1O)Cc1cc(C(C)C)cc(c1O)Cc1cc(C(C)C)cc(c1O)C2 | > 14.5 | > 14.5 | –
4 | CCCCCCO/N=C\c1c2c(O)c3c(O)c(C)c4c(c3c1O)C(=O)C(C)(O/C=C\C(OC)C(C)C(OC(C)=O)C(C)C(O)C(C)C(O)C(C)/C=C\C=C(\C)C(=O)N2)O4 (stereo not given) | > 200 | 5.37 | –
5 | N#CC(C#N)=C(N)/C(C#N)=C/c1ccc2[nH]ccc2c1 | > 200 | > 200 | –
6 | C=C1CC(CCCl)(c2ccccc2)OC1=O (stereo not given) | > 41.7 | 6.46 | –
7 | C=C1N2[C@@H](CO)[C@H](c3ccccc3)O[C@]2(C)CC[C@]1(C)Cc1ccccc1 | > 200 | 83.2 | –
8 | CC(=O)OC(C(=O)[O][Ge]([CH3])([CH3])[CH3])c1ccccc1 (stereo not given) | – | – | inactive
9 | C[C@H](Nc1nc(N)c(N=O)c(=O)n1C)C(=O)O | > 200 | > 200 | –
10 | CS(=O)(=O)N/N=C/CN1C(=O)c2ccccc2C1=O | > 891 | > 891 | –
11 | Cc1ccc(-c2c(C#N)c(-c3ccccc3)n(NS(=O)(=O)c3ccccc3)c(=O)c2C#N)cc1 | > 200 | 28.8 | –
12 | C=CC1CN2CCC1CC2C(=O)c1ccnc2ccccc12 (stereo not given) | > 200 | 97.7 | –
13 | O=C(O)CCCSC(=O)Nc1ccc(N=Nc2ccccc2)cc1 | – | – | inactive
14 | COc1cc2oc(=O)cc(C)c2c(OC)c1O | – | – | inactive
15 | NC1=Nc2ccccc2Sc2nnc(-c3ccc(Cl)cc3)n21 | > 200 | 115 | –
16 | Cc1cc(O)c(C(C)C)cc1C1(c2cc(C(C)C)c(O)cc2C)OS(=O)(=O)c2ccccc21 | – | – | inactive
17 | CSC(=S)N(C)NC(=O)c1cccc(C(=O)NN(C)C(=S)SC)n1 | > 200 | > 200 | –
18 | COc1ccc2c(=O)c(O)c(-c3ccc(OC)c(OC)c3)oc2c1 | > 200 | > 200 | –
19 | O=[N+]([O-])c1ccc(Cc2nc3ccccc3s2)cc1 | > 132 | 38 | –
20 | Nc1ccc(/C=C/c2ccnc3ccccc23)cc1 | 19.5 | > 200 | –
21 | NCCn1ccc(NC(c2ccccc2)(c2ccccc2)c2ccccc2)nc1=O | > 91.2 | 45.7 | –

Row | Compound | EC50 [µM] | IC50 [µM] | outcome
22 | C[C@H](N)C(=O)N[C@@H]1[C@H]2C(=C(O)C[C@@H](O)[C@@H]2O)C(=O)O[C@]1(C)C(Cl)Cl | > 67.6 | 0.224 | –
23 | COc1cc(C(=O)n2c3ccc(Br)cc3c3nc4ccccc4nc32)cc(OC)c1OC | > 50.1 | > 50.1 | –
24 | CCN(CCO)CCCC(C)Nc1ccnc2cc(Cl)ccc12 (stereo not given) | > 200 | 64.6 | –
25 | CN1C(=O)C(=O)n2c(cc3ccccc32)C1=O | > 6.31 | > 6.31 | –
26 | NC(CSSCC(N)C(=O)O)C(=O)O (stereo not given) | > 200 | > 200 | –
27 | Cn1c2ccccc2n2c(=O)c(-c3ccc(Cl)cc3)nnc12 | > 200 | > 200 | –
28 | COC(=O)C1C(=O)CC2C(C(=O)OC)C(=O)CC12 (stereo not given) | > 234 | 105 | –
29 | c1ccc(N2CCN(CCN3CCc4c([nH]c5ccccc45)C3c3cccnc3)CC2)cc1 (stereo not given) | > 2.4 | > 2.4 | –
30 | Cc1ccc(C(=O)N2CCCCC2)cc1N=NN(C)C | > 263 | 240 | –
31 | OC[C@H]1NC[C@@H](O)[C@@H](O)[C@H]1O | – | – | inactive
32 | O=C(NCCCN1CCCCCC1)C(c1ccccc1)C1CCCCC1 (stereo not given) | > 200 | 36.3 | –
33 | COC(=O)/C=C/C1C2C3(CCC(C)C12C)OCCS3 (stereo not given) | > 126 | > 126 | –
34 | CCOC(=O)c1cc(C2CCN(c3ccccc3)C2=O)c(C(=O)/C=C(/C)N)[nH]1 (stereo not given) | 57.5 | > 200 | –
35 | COC(=O)c1c(-c2ccccc2)c(C(O)c2ccccc2)n2ccccc12 (stereo not given) | > 26.3 | 14.1 | –
36 | CCOC(=O)NC(=O)c1cn(CCCOC(=O)NCCCCCCNC(=O)OCCCn2c(=O)c(C(=O)NC(=O)OCC)cn(C)c2=O)c(=O)n(C)c1=O | > 33.9 | > 33.9 | –
37 | CCOC(=O)/C=C/[C@H](O[Si](CC)(CC)CC)C(C)(C)C | > 200 | > 200 | –
38 | C/C(=N\NC(=O)C[N+](C)(C)C)c1sc(-c2cccnc2)nc1C | > 135 | 72.4 | –
39 | COc1nn(Cc2ccccn2)c2ccc([N+](=O)[O-])cc12 | > 200 | 135 | –
40 | CC1(O)CC2(O)C=CC3=C(C(=O)c4cccc(O)c4C3=O)C2(O)C(=O)C1O (stereo not given) | > 676 | 0.339 | –
41 | O=C(CCCC[n+]1ccccc1)Sc1ccccc1C(=O)Nc1ccc(S(=O)(=O)c2ccc([N+](=O)[O-])cc2)cc1 | 7.59 | 138 | –
42 | Clc1ccc(N=c2ccc3ccccc3[oH+]2)cc1.Clc1ccc(N=c2ccc3ccccc3[oH+]2)cc1.[Ni] | – | – | inactive

Row | Compound | EC50 [µM] | IC50 [µM] | outcome
43 | Cc1ccc(S(=O)(=O)NN=C2C(C)(C)CC2(C)C)cc1 | > 200 | > 200 | –
44 | COc1ccc(-c2c3c(nc4nc(SCCc5ccccc5)nc(N)c24)CCCC3)cc1OC | > 200 | > 200 | –
45 | CN1C(=O)CCC1(O)C1C=CC=CC1 (stereo not given) | > 1290 | > 1290 | –
46 | CC1(C)CS(=O)(=O)CC(C)(C)C(=N/N)/C1=N\N | > 200 | > 200 | –
47 | CC(C)(C)[Si](C)(C)OCC1OC(n2cnc3c(=O)[nH]c(NCc4ccccc4)nc32)C(O[Si](C)(C)C(C)(C)C)C1O[Si](C)(C)C(C)(C)C (stereo not given) | > 200 | 141 | –
48 | C[Si]1(C)CCCSC1 | > 200 | > 200 | –
49 | CCN=C1Nc2ccccc2-n2c(nn3nc4ccccc4c23)N1CC | 5.37 | > 200 | –
50 | COc1cc(C2c3[nH]c4ccc(F)cc4c3C[C@H]3COC(=O)N23)cc(OC)c1O (stereo not given in full) | > 200 | 0.575 | –
51 | CCCc1cc(=O)oc2c3c(c4c(c12)OC(C)(C)[C@H](OC(=O)c1ccc(Br)cc1)[C@@H]4OC(=O)c1ccc(Br)cc1)O[C@@H](C)[C@H](C)[C@@H]3OC(=O)c1ccc(Br)cc1 | > 200 | > 200 | –
52 | Cc1nc2ccccc2c(=O)n1NC(=S)NC1CCCCC1 | > 4.57 | > 4.57 | –
53 | COc1ccc(OC)c2cc(Cc3ccc(N(C)C)cc3)c(=O)c(Cc3ccc(N(C)C)cc3)cc12 | > 200 | 43.7 | –
54 | O=C1NC(Cc2ccc(O)cc2)C(=O)NC1Cc1ccc(O)cc1 (stereo not given) | > 100 | > 100 | –
55 | CC(C)CCC[C@@H](C)C1CCC2C3CCC4C[C@@](O)(C(c5cc(Cl)c(O)c(C(=O)O)c5)c5cc(Cl)c(O)c(C(=O)O)c5)CC[C@]4(C)C3CC[C@@]21C (stereo not given in full) | > 200 | 25.1 | –
56 | NCCCC[C@H](NC(=O)[C@H](CS)NC(=O)[C@@H](N)Cc1cnc[nH]1)C(=O)N[C@@H](Cc1ccc(O)cc1)C(=O)N[C@@H](Cc1c[nH]c2ccccc12)C(=O)N[C@@H](Cc1c[nH]c2ccccc12)C(N)=O | > 200 | > 200 | –
57 | c1ccc2c(c1)n1nnnc1c1nnnn21 | > 33.9 | > 33.9 | –
58 | CN1CN(C)N(C(=O)c2ccccc2)CN1C(=O)c1ccccc1 | > 200 | 97.7 | –
59 | N#C[C@H](c1ccccn1)c1nc2ccccc2nc1Cl | > 200 | 115 | –
60 | COc1cc2c(c(OC)c1OC)CCNC2C1=C(O)COC1=O (stereo not given) | – | – | inactive
61 | CC(=O)OC1=c2ccccc2=C(O)C2C1C=NN2C(C)=O (stereo not given) | > 200 | 87.1 | –
62 | O=C1CCC(=O)c2ccccc2N1 | > 1020 | > 1020 | –
63 | O=C1c2ccccc2C(=O)N1CC(O)COc1cccc2ccccc12 (stereo not given) | > 200 | > 200 | –

Row | Compound | EC50 [µM] | IC50 [µM] | outcome
64 | COc1ccc(-c2cn3c([nH]c(=O)c4cc(Br)ccc43)c2C#N)cc1 | > 200 | 182 | –
65 | CCOC(=O)C[C@H]1C(=O)C[C@@H]2C[C@@H](C)CC(=O)[C@@]21CCC#N | – | – | inactive
66 | CC(NC(=O)CNC(=O)C(N)CO)C(=O)NC(CCC(=O)O)C(=O)NC(CCCCN)C(=O)NC(CO)C(=O)NC(CCCCN)C(=O)NC(CCCCN)C(=O)NC(CCCCN)C(=O)NCC(=O)NC(CO)C(=O)NC(CC(N)=O)C(=O)NC(C)C(=O)NC(Cc1cnc[nH]1)C(=O)NC(CO)C(=O)O (stereo not given) (H-SGAEKSKKKGSNAHS-OH; configuration not given here) | – | – | inactive
67 | COC(=O)c1c(C(=O)OC)c2c(C)nn3ccc1n23 | > 955 | > 955 | –
68 | C/C(O)=C/c1nc2ccccc2[nH]1 | > 1450 | 1260 | –
69 | c1cc2sc3ccc(OCCCN4CCCCC4)cc3c2cc1OCCCN1CCCCC1 | > 93.3 | 1.58 | –
70 | CN(C)C(=S)SSC(=S)N(C)C.[Zn+2] | > 200 | 0.117 | –
71 | COC(=O)C1=C(C(=O)OC)SC(C(C(=O)OC)=C2SC3=C(CCCC3)S2)S1 | – | – | inactive
72 | O=C(O)c1cc[c]([Sb](=[O])([OH])[OH])cc1[N+](=O)[O-] | 10.2 | 398 | –
73 | C[N+](C)(C)C1C=CCC2=C1S(=O)(=O)C2 (stereo not given) | > 741 | 355 | –
74 | Cc1nc2cc([N+](=O)[O-])ccc2c(NCCCN(C)C)c1C | > 200 | 3.55 | –
75 | CCN(CC)CCCC(C)Nc1ccnc2cc(F)ccc12 (stereo not given) (tested in a mixture with another compound) | > 200 | > 200 | –
76 | COC(=O)C1=NN2c3ccccc3C(=O)OCCC2C1 (stereo not given) | > 200 | > 200 | –
77 | CCOC(=O)N1Cc2ccoc2C1 | > 75.9 | > 75.9 | –
78 | CCC12C=CCN3CCC4(c5cc(C(c6ccc(OC)cc6)c6cc7ccccc7n6S(=O)(=O)c6ccccc6)c(OC)cc5N(C)C4C(O)(C(=O)OC)C1OC(C)=O)C32 (stereo not given) | > 8.71 | > 8.71 | –
79 | CCOC(=O)NC(=O)c1cn(CC(=O)NCC(=O)NCC(=O)NCCCN2CCN(CCCNC(=O)CNC(=O)CNC(=O)Cn3cc(C(=O)NC(=O)OCC)c(=O)[nH]c3=O)CC2)c(=O)[nH]c1=O | – | – | inactive
80 | NCCCSCC(=O)O | – | – | inactive
81 | O=C(Nc1cccc([N+](=O)[O-])c1)C(=O)C(C(=O)c1ccccc1F)C1OC(=O)C2C=CC=CC21 (stereo not given) | > 282 | 4.07 | –
